The values that follow are results of earlier work, collected in patent publication US11103587B2, “Multiple oligonucleotide moieties on peptide carrier” (Genzyme Corporation, priority 2014, dated 2021).

The conditions of series [1]: mice; cited from earlier work.
Series [2] deals with exon 23 of the mRNA encoding for dystrophin. The following applies: mdx mouse, cited from earlier work.

As for “GGCCAAACCTCGGCTTACCTGAAAT (PMO backbone, chemistry not fully specified) [PMO23, PMO designed to skip exon 23 of the mRNA encoding for dystrophin]”, the “amount administered without any noticeable toxic effects” value in series [1] is reported as ≤ 250 mg/kg. Also, the “skipping of exon 23 in cardiac muscle” value in series [2] (cardiac muscle) is on record as “does not effect exon 23 skipping in cardiac muscle”. Further, the “skipping of exon 23 in skeletal muscle” value in series [2] (skeletal muscle) is < 15%.
